Assay results published in ChEMBL document CHEMBL5131473, “One-pot synthesis of oxoaporphines as potent antitumor agents and investigation of their mechanisms of actions” (Eur J Med Chem, 2022).
Active and inactive are the calls of the source. The calls are words filed in the database; no cut-off is given here.

How the values were obtained:
Type in all cases: functional, cell-based
[1] = tested on: WI-38; experiment: Antiproliferative activity against human WI-38 cells assessed as cell growth inhibition measured after 48 hrs by MTT assay; settings: WI-38, 48 h
[2] = tested on: MGC-803; experiment: Antiproliferative activity against human MGC-803 cells assessed as cell growth inhibition measured after 48 hrs by MTT assay; settings: MGC-803, 48 h
[3] = tested on: HepG2; experiment: Antiproliferative activity against human HepG2 cells assessed as cell growth inhibition measured after 48 hrs by MTT assay; settings: HepG2, 48 h
[4] = tested on: SK-OV-3; experiment: Antiproliferative activity against human SK-OV-3 cells assessed as cell growth inhibition measured after 48 hrs by MTT assay; settings: SK-OV-3, 48 h
[5] = tested on: T-24; experiment: Antiproliferative activity against human T24 cells assessed as cell growth inhibition measured after 48 hrs by MTT assay; settings: T-24, 48 h
[6] = tested on: T-24; experiment: Induction of mitochondrial membrane potential dysfunction in human T24 cells assessed as mitochondrial fragment condensation at 0.5 to 1 uM by mito-tracker green dye based fluorescence microscopy; settings: dose 0.5-1 µM

| Compound | IC50 [1] | IC50 [2] | IC50 [3] | IC50 [4] | IC50 [5] | Activity [6] |
| --- | --- | --- | --- | --- | --- | --- |
| O=c1[nH]cc(F)c(=O)[nH]1 [FLUOROURACIL] | > 40 µM | 39.1 µM | 20.4 µM | 21.6 µM | 39.4 µM |  |
| COc1cc2ccnc3c2c(c1OC)-c1ccccc1C3=O [LYSICAMINE] | 6.7 µM | 15.8 µM | > 40 µM | 12.1 µM | 7.3 µM |  |
| COc1cc2c3c(nccc3c1OC)C(=O)c1cc(O)ccc1-2 | > 40 µM | 30.9 µM | 36.9 µM | 38.4 µM | 26.2 µM |  |
| COc1ccc2c3c(nccc13)C(=O)c1ccccc1-2 | 20.4 µM | 7.3 µM | 12.8 µM | 10.4 µM | 6.5 µM |  |
| O=C1c2ccc(F)cc2-c2cccc3ccnc1c23 | 36.5 µM | 17.8 µM | 27.4 µM | 27.4 µM | 21.2 µM |  |
| COc1ccc2c(c1)-c1cccc3ccnc(c13)C2=O | > 40 µM | 16.6 µM | 19.6 µM | 26.1 µM | 18.9 µM |  |
| COc1cc2c3c(nccc3c1OC)C(=O)c1cc(OCc3ccccc3)ccc1-2 | 35.1 µM | 15.8 µM | > 40 µM | 22.1 µM | 7.3 µM |  |
| COc1ccc2c3c(nccc13)C(=O)c1cc(O)ccc1-2 | > 40 µM | > 40 µM | 34.1 µM | 32.9 µM | 12.3 µM |  |
| O=C1c2cc3c(cc2-c2cccc4ccnc1c24)OCO3 | > 40 µM | 20.8 µM | > 40 µM | 38.1 µM | 14.2 µM |  |
| O=C1c2cc(O)ccc2-c2cccc3ccnc1c23 | > 40 µM | 21.5 µM | > 40 µM | 29.4 µM | 28.9 µM |  |
| O=C1c2cc(Cl)ccc2-c2cccc3ccnc1c23 | > 40 µM | 26.3 µM | 15.3 µM | > 40 µM | 34.1 µM |  |
| COc1cc2c3c(nccc3c1OC)C(=O)c1ccccc1-2 | 29.7 µM | 9.2 µM | 35 µM | 27.4 µM | 18.3 µM | Active |
| COc1cc2c(cc1OC)-c1cccc3ccnc(c13)C2=O | 38.2 µM | 10.9 µM | 35.9 µM | > 40 µM | 22.3 µM |  |
| O=C1c2c(F)cccc2-c2cccc3ccnc1c23 | > 40 µM | 16.2 µM | 30.3 µM | 22.3 µM | 15.2 µM | Active |
| Cc1ccc2c(c1)-c1cccc3ccnc(c13)C2=O | 32.4 µM | 10.6 µM | 30.1 µM | 16.7 µM | 8.6 µM |  |
| COc1ccc2c3c(nccc13)C(=O)c1cc(OCc3ccccc3)ccc1-2 | 38.6 µM | 16.7 µM | 25.8 µM | 18.5 µM | 19.1 µM |  |
| O=C1c2ccc(Cl)cc2-c2cccc3ccnc1c23 | > 40 µM | 15.9 µM | > 40 µM | 27.2 µM | 16.8 µM |  |
| COc1ccc2c(c1)C(=O)c1nccc3cccc-2c13 | 28.7 µM | 14.8 µM | 7.3 µM | 19.4 µM | 20.4 µM |  |
| O=C1c2cc([N+](=O)[O-])ccc2-c2cccc3ccnc1c23 | > 40 µM | > 40 µM | > 40 µM | > 40 µM | > 40 µM |  |
| Cc1ccc2c(c1)C(=O)c1nccc3cccc-2c13 | 28.4 µM | 10 µM | 13.1 µM | 17 µM | 12.4 µM |  |
| O=C1c2cc(OCc3ccccc3)ccc2-c2cccc3ccnc1c23 | > 40 µM | > 40 µM | > 40 µM | > 40 µM | > 40 µM |  |
